According to paper PMC7204994 (Frontiers in Pharmacology, 2020):

Experiments:
[1] = target: T1, LIMK1 (Homo sapiens, UniProt P53667); experiment: cell-free LIMK1 biochemical assay; conditions: cited from earlier work
[2] = target: T1, LIMK1; experiment: in vitro GST-cofilin phosphorylation by recombinant LIMK1, Western blot, […] compound; assay type: biochemical; set-up: recombinant human LIMK1 (Millipore #14-656)

T1 sequence (P53667 whole entry): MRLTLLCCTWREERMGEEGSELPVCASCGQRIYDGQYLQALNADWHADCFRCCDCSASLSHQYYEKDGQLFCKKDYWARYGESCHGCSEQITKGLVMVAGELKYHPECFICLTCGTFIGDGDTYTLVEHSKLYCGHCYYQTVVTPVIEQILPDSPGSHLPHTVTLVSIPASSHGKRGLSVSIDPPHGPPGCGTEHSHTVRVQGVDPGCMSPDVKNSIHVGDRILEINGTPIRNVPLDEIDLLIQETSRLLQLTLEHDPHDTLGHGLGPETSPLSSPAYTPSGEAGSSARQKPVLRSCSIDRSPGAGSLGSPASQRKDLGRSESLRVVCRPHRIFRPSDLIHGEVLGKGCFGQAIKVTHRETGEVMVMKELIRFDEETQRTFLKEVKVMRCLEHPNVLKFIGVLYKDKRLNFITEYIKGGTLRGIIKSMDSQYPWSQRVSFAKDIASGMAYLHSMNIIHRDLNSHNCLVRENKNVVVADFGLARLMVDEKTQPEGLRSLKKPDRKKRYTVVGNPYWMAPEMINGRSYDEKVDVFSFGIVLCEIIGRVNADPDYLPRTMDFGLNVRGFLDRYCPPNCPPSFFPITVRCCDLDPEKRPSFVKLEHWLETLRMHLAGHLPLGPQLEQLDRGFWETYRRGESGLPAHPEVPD

Cc1c[nH]c2ncnc(-c3ccc(NC(=O)N(CCN)c4ccc(Cl)cc4)c(F)c3)c12 [SR10905, 1-(2-aminoethyl)-1-(4-chlorophenyl)-3-(2-fluoro-4-(5-methyl-7H-pyrrolo[2,3-d]pyrimidin-4-yl)phenyl)urea]
IC50 [1]: 15 nM

Cn1cc(-c2[nH]c3cc(NC(=O)C(N)C4CCCCC4)cc4c3c2C=NNC4=O)cn1 (centres unmarked) [PF0477736]
in vitro GST-cofilin phosphorylation by recombinant LIMK1, Western blot, 10 μM c [2]: showed that PF0477736 is indeed able to directly inhibit LIMK
